Source: patent publication US6525001B1, “Substituted pyrimidine and pyridine herbicides” (Mid-American Commercialization Corporation, priority 1997, dated 2003)

Experiments:
Test in all cases: Test B pre-/postemergence
Format in all cases: in vivo
Set-up in all cases: key: 0 is no effect; 10 is complete control
rape (Brassica napus) = tested on: rape (Brassica napus)
Procedure, shortened: (§1)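 Response scores run from 0, meaning no effect, to 10, meaning complete control, assigned by eye relative to controls twelve to sixteen days after spraying. Treatment was both preemergence on planted seed and postemergence on plants at the 1- to 4-leaf stage.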

[1] = tested on: pigweed (Amaranthus retroflexus)
Procedure, shortened: as §1

[2] = tested on: crabgrass (Digitaria sanguinalis)
Procedure, shortened: as §1

[3] = tested on: broadleaf signalgrass (Brachiaria decumbens)
Procedure, shortened: as §1

[4] = tested on: momingglory (Ipomoea hederacea)
Procedure, shortened: as §1

soybean (Glycine max) = tested on: soybean (Glycine max)
Procedure, shortened: as §1

[5] = tested on: giant foxtail (Setaria faberii)
Procedure, shortened: as §1

corn (Zea mays) = tested on: corn (Zea mays)
Procedure, shortened: as §1

[6] = tested on: wheat (Triticum aestivum)
Procedure, shortened: as §1

[7] = tested on: sugar beet (Beta vulgaris)
Procedure, shortened: as §1

[8] = tested on: velvetleaf (Abutilon theophrasti)
Procedure, shortened: as §1

[9] = tested on: bedstraw (Galium aparine)
Procedure, shortened: as §1

[10] = tested on: purple nutsedge (Cyperus rotundus)
Procedure, shortened: as §1

[11] = tested on: cocklebur (Xanthium strumarium); conditions: for Plant response rating, Cocklebur: Postemergence
Procedure, shortened: as §1

Cc1cnc(-c2ccc(C(F)(F)F)cc2)nc1Cc1cccc(OC(F)(F)F)c1 [Compound 15]
Plant response rating, Rape (rape (Brassica napus); Rate 62 g/ha, Postemergence): 9
Rape plant response rating (rape (Brassica napus); Rate 62 g/ha, Preemergence): 6
Plant response rating, Rape (rape (Brassica napus); Rate 125 g/ha, Postemergence): 9
Rape plant response rating (rape (Brassica napus); Rate 125 g/ha, Preemergence): 9
Plant response rating, Rape (rape (Brassica napus); Rate 250 g/ha, Postemergence): 9
Plant response rating, Rape (rape (Brassica napus); Rate 250 g/ha, Preemergence): 9
Plant response rating, Redroot pigweed ([1]; Rate 62 g/ha, Postemergence): 9
Redroot pigweed plant response rating ([1]; Rate 62 g/ha, Preemergence): 6
Plant response rating, Redroot pigweed ([1]; Rate 125 g/ha, Postemergence): 9
Redroot pigweed plant response rating ([1]; Rate 125 g/ha, Preemergence): 10
Plant response rating, Redroot pigweed ([1]; Rate 250 g/ha, Postemergence): 9
Plant response rating, Redroot pigweed ([1]; Rate 250 g/ha, Preemergence): 10
Plant response rating, Crabgrass ([2]; Rate 62 g/ha, Postemergence): 9
Crabgrass plant response rating ([2]; Rate 62 g/ha, Preemergence): 9
Plant response rating, Crabgrass ([2]; Rate 125 g/ha, Postemergence): 9
Crabgrass plant response rating ([2]; Rate 125 g/ha, Preemergence): 10
Plant response rating, Crabgrass ([2]; Rate 250 g/ha, Postemergence): 9
Plant response rating, Crabgrass ([2]; Rate 250 g/ha, Preemergence): 10
Plant response rating, B. signalgrass ([3]; Rate 62 g/ha, Postemergence): 4
B. signalgrass plant response rating ([3]; Rate 62 g/ha, Preemergence): 9
Plant response rating, B. signalgrass ([3]; Rate 125 g/ha, Postemergence): 4
B. signalgrass plant response rating ([3]; Rate 125 g/ha, Preemergence): 9
Plant response rating, B. signalgrass ([3]; Rate 250 g/ha, Postemergence): 8
Plant response rating, B. signalgrass ([3]; Rate 250 g/ha, Preemergence): 9
Plant response rating, Morningglory ([4]; Rate 62 g/ha, Postemergence): 8
Morningglory plant response rating ([4]; Rate 62 g/ha, Preemergence): 4
Plant response rating, Morningglory ([4]; Rate 125 g/ha, Postemergence): 8
Morningglory plant response rating ([4]; Rate 125 g/ha, Preemergence): 7
Plant response rating, Morningglory ([4]; Rate 250 g/ha, Postemergence): 9
Plant response rating, Morningglory ([4]; Rate 250 g/ha, Preemergence): 9
Plant response rating, Soybean (soybean (Glycine max); Rate 62 g/ha, Postemergence): 9
Soybean plant response rating (soybean (Glycine max); Rate 62 g/ha, Preemergence): 0
Plant response rating, Soybean (soybean (Glycine max); Rate 125 g/ha, Postemergence): 9
Soybean plant response rating (soybean (Glycine max); Rate 125 g/ha, Preemergence): 1
Plant response rating, Soybean (soybean (Glycine max); Rate 250 g/ha, Postemergence): 9
Plant response rating, Soybean (soybean (Glycine max); Rate 250 g/ha, Preemergence): 1
Plant response rating, Giant foxtail ([5]; Rate 62 g/ha, Postemergence): 7
Giant foxtail plant response rating ([5]; Rate 62 g/ha, Preemergence): 10
Plant response rating, Giant foxtail ([5]; Rate 125 g/ha, Postemergence): 7
Giant foxtail plant response rating ([5]; Rate 125 g/ha, Preemergence): 10
Plant response rating, Giant foxtail ([5]; Rate 250 g/ha, Postemergence): 8
Plant response rating, Giant foxtail ([5]; Rate 250 g/ha, Preemergence): 10
Plant response rating, Corn (corn (Zea mays); Rate 62 g/ha, Postemergence): 3
Corn plant response rating (corn (Zea mays); Rate 62 g/ha, Preemergence): 1
Plant response rating, Corn (corn (Zea mays); Rate 125 g/ha, Postemergence): 4
Corn plant response rating (corn (Zea mays); Rate 125 g/ha, Preemergence): 1
Plant response rating, Corn (corn (Zea mays); Rate 250 g/ha, Postemergence): 5
Plant response rating, Corn (corn (Zea mays); Rate 250 g/ha, Preemergence): 2
Plant response rating, Wheat ([6]; Rate 62 g/ha, Postemergence): 4
Wheat plant response rating ([6]; Rate 62 g/ha, Preemergence): 2
Plant response rating, Wheat ([6]; Rate 125 g/ha, Postemergence): 4
Wheat plant response rating ([6]; Rate 125 g/ha, Preemergence): 4
Plant response rating, Wheat ([6]; Rate 250 g/ha, Postemergence): 6
Plant response rating, Wheat ([6]; Rate 250 g/ha, Preemergence): 7
Plant response rating, Sugarbeets ([7]; Rate 62 g/ha, Postemergence): 9
Sugarbeets plant response rating ([7]; Rate 62 g/ha, Preemergence): 10
Plant response rating, Sugarbeets ([7]; Rate 125 g/ha, Postemergence): 9
Sugarbeets plant response rating ([7]; Rate 125 g/ha, Preemergence): 10
Plant response rating, Sugarbeets ([7]; Rate 250 g/ha, Postemergence): 10
Plant response rating, Sugarbeets ([7]; Rate 250 g/ha, Preemergence): 10
Plant response rating, Velvetleaf ([8]; Rate 62 g/ha, Postemergence): 5
Velvetleaf plant response rating ([8]; Rate 62 g/ha, Preemergence): 4
Plant response rating, Velvetleaf ([8]; Rate 125 g/ha, Postemergence): 8
Velvetleaf plant response rating ([8]; Rate 125 g/ha, Preemergence): 7
Plant response rating, Velvetleaf ([8]; Rate 250 g/ha, Postemergence): 8
Plant response rating, Velvetleaf ([8]; Rate 250 g/ha, Preemergence): 7
Plant response rating, Bedstraw ([9]; Rate 62 g/ha, Postemergence): 9
Bedstraw plant response rating ([9]; Rate 62 g/ha, Preemergence): 6
Plant response rating, Bedstraw ([9]; Rate 125 g/ha, Postemergence): 9
Bedstraw plant response rating ([9]; Rate 125 g/ha, Preemergence): 8
Plant response rating, Bedstraw ([9]; Rate 250 g/ha, Postemergence): 9
Plant response rating, Bedstraw ([9]; Rate 250 g/ha, Preemergence): 8
Plant response rating, Nutsedge ([10]; Rate 62 g/ha, Postemergence): 0
Nutsedge plant response rating ([10]; Rate 62 g/ha, Preemergence): 0
Plant response rating, Nutsedge ([10]; Rate 125 g/ha, Postemergence): 2
Nutsedge plant response rating ([10]; Rate 125 g/ha, Preemergence): 0
Plant response rating, Nutsedge ([10]; Rate 250 g/ha, Postemergence): 2
Plant response rating, Nutsedge ([10]; Rate 250 g/ha, Preemergence): 2
Plant response rating, Cocklebur ([11]; Rate 62 g/ha): 9
Plant response rating, Cocklebur ([11]; Rate 125 g/ha): 9
Cocklebur plant response rating ([11]; Rate 125 g/ha, Preemergence): 1
Plant response rating, Cocklebur ([11]; Rate 250 g/ha): 10
